According to ChEMBL document CHEMBL5050843, “Amide substituted thiazoles as protein secretion inhibitors” (2019):

Tests used:
Type in all cases: functional, cell-based
[1] = Inhibition of TNF-alpha-FL-Gluc secretion in doxycyclin-induced human Flp-In-T-REx-293 cells measured by Gaussia luciferase reporter gene method
[2] = Inhibition of PD1ss-Gluc secretion in doxycyclin-induced human Flp-In-T-REx-293 cells measured by Gaussia luciferase reporter gene method
[3] = Inhibition of PR1ss-Gluc secretion in doxycyclin-induced human Flp-In-T-REx-293 cells measured by Gaussia luciferase reporter gene method
[4] = Inhibition of constitutively active VCAMss-Gluc secretion in human Flp-In-T-REx-293 cells measured by Gaussia luciferase reporter gene method
[5] = Inhibition of constitutively active PR1ss-Gluc secretion in human Flp-In-T-REx-293 cells measured by Gaussia luciferase reporter gene method

Row | SMILES | IC50 [1] | IC50 [2] | IC50 [3] | IC50 [4] | IC50 [5]
1 | C[C@H](c1ccccc1Cl)n1cc(CC(=O)Nc2nc(C(C)(C)C)cs2)c2cc(Cl)ccc21 | > 25 µM | 4.16 µM | > 25 µM |  | 
2 | CC(C)(C)c1csc(NC(=O)Cc2cn(Cc3ccccc3)c3ccc(Br)cc23)n1 |  | 6.13 µM | > 25 µM |  | 
3 | CC(=O)N(C)[C@@H](Cc1cn(Cc2ccc(F)cc2)c2ccccc12)C(=O)Nc1nc(C(C)(C)C)cs1 |  | > 25 µM | > 25 µM |  | 
4 | CN[C@@H](Cc1cn(Cc2ccc(F)cc2)c2ccccc12)C(=O)Nc1nc(C(C)(C)C)cs1 |  | > 25 µM | > 25 µM |  | 
5 | CCC1CCc2sc(C(=O)Nc3nc(C(C)(C)C)cs3)cc2C1 (configuration not stated) | > 80 µM |  |  | 7.9 µM | 
6 | COc1ccc2cc(C(=O)Nc3nc(C(C)(C)C)cs3)sc2c1 | > 80 µM |  |  | 1.8 µM | 
7 | CC(C)(C)c1csc(NC(=O)c2cc3ccccc3n2Cc2ccccc2)n1 |  | 8.29 µM | > 25 µM |  | 
8 | CC(c1ccccc1)n1cc(CC(=O)Nc2nc(C(C)(C)C)cs2)c2cc(Cl)ccc21 (configuration not stated) |  | 2.66 µM | > 25 µM | 0.217 µM | > 25 µM
9 | CC(C)(C)c1csc(NC(=O)c2cc3c([nH]2)CCCC3)n1 | > 80 µM |  |  | 2.5 µM | 
10 | CC(C)(C)OC(=O)N1CCc2sc(C(=O)Nc3nc(C(C)(C)C)cs3)cc2C1 | > 50 µM |  |  | 20 µM | 
11 | COc1ccc2c(c1)c(CC(=O)Nc1nc(C(C)(C)C)cs1)cn2Cc1ccccc1 |  | 3.41 µM | > 25 µM |  | 
12 | CC(C)(C)c1csc(NC(=O)c2ccc(-c3ccccc3)s2)n1 | 4.5 µM |  |  | 1.3 µM | 
13 | CC(C)(C)c1csc(NC(=O)c2ccc(Br)s2)n1 | > 80 µM |  |  | 23 µM | 
14 | CC(C)(C)c1csc(NC(=O)Cc2cn(Cc3ccccc3C#N)c3ccc(Cl)cc23)n1 |  | 3.65 µM | > 25 µM |  | 
15 | CC1(C)CCc2sc(NC(=O)c3cc4c(s3)CCCC4)nc21 | > 80 µM |  |  | 0.4 µM | 
16 | CC(C)(C)c1csc(NC(=O)Cc2cn(Cc3cocn3)c3ccc(Cl)cc23)n1 | > 25 µM | 22 µM |  |  | 
17 | CC(C)(C)c1csc(NC(=O)Cc2cn(-c3cccc(Cl)c3)c3ccc(Cl)cc23)n1 |  | 4.14 µM | > 25 µM |  | 
18 | CC(C)(C)c1csc(NC(=O)Cc2cn(Cc3ccccc3)c3ccc(C(N)=O)cc23)n1 |  | > 25 µM | > 25 µM |  | 
19 | CC(C)(C)c1csc(NC(=O)Cc2cn(C3CCCC3)c3ccc(Cl)cc23)n1 |  | 6.52 µM | > 25 µM |  | 
20 | CNC(=O)c1ccc2sc(C(=O)Nc3nc(C(C)(C)C)cs3)cc2c1 |  | 8.8 µM | 7.44 µM |  | 
21 | CC(C)(C)c1csc(NC(=O)Cc2cn(Cc3ccon3)c3ccc(Cl)cc23)n1 | > 25 µM | 10.3 µM |  |  | 
22 | CC(C)(C)c1nc(NC(=O)c2cc3c(s2)CCCC3)sc1C#N | > 80 µM |  |  | > 80 µM | 

Row | SMILES | IC50 [1] | IC50 [2] | IC50 [3] | IC50 [4] | IC50 [5]
23 | CC(C)Cn1cc(CC(=O)Nc2nc(C(C)(C)C)cs2)c2cc(Cl)ccc21 |  | 5.38 µM | > 25 µM |  | 
24 | CC(C)(C)c1csc(NC(=O)Cc2cn(Cc3ccccc3)c3ccc(C#N)cc23)n1 |  | 6.06 µM | > 25 µM |  | 
25 | CC(C)c1csc(NC(=O)c2cc3c(s2)CCCC3)n1 | > 80 µM |  |  | 1.2 µM | 
26 | COC(=O)c1sc(NC(=O)c2cc3c(s2)CCCC3)nc1C(C)(C)C | > 80 µM |  |  | 3.9 µM | 
27 | O=C(Nc1nc(C2CC2)cs1)c1cc2c(s1)CCCC2 | > 80 µM |  |  | 11 µM | 
28 | CC(C)(C)c1csc(NC(=O)Cc2cn(-c3ccccn3)c3ccc(Cl)cc23)n1 |  | 8.72 µM | > 25 µM |  | 
29 | CC(C)n1cc(CC(=O)Nc2nc(C(C)(C)C)cs2)c2cc(Cl)ccc21 |  | 4.4 µM | > 25 µM | 0.587 µM | > 25 µM
30 | CC(C)(C)c1csc(NC(=O)c2cc3ccc(Br)cc3s2)n1 | > 80 µM |  |  | 3.3 µM | 
31 | CCCc1csc(NC(=O)c2cc3c(s2)CCCC3)n1 | > 80 µM |  |  | 2.6 µM | 
32 | CC(=O)N1CCc2sc(C(=O)Nc3nc(C(C)(C)C)cs3)cc2C1 | > 50 µM |  |  | > 50 µM | 
33 | CC(C)(C)c1csc(NC(=O)c2cn(Cc3ccccc3)c3ccccc23)n1 |  | 7.05 µM | > 25 µM |  | 
34 | CC(C)(C)c1csc(NC(=O)c2cc3c(s2)CCC3)n1 | 18 µM |  |  | 1 µM | 
35 | CC(C)(C)c1nsc(NC(=O)c2cc3c(s2)CCCC3)n1 | 4.7 µM |  |  | 0.43 µM | 
36 | CC(C)(C)c1csc(NC(=O)c2cc3c(s2)CCCCC3)n1 | 4.3 µM |  |  | 0.58 µM | 
37 | Cc1cc(C(=O)Nc2nc(C(C)(C)C)cs2)no1 |  |  |  | > 80 µM | > 80 µM
38 | COc1cccc(C(=O)Nc2nc(C(C)(C)C)cs2)c1 |  |  |  | > 25 µM | > 25 µM
39 | CC(C)(C)c1csc(NC(=O)Cc2cc3ccccc3s2)n1 |  |  |  | > 25 µM | > 25 µM
40 | CC(C)CC(C(=O)Nc1nc(C(C)(C)C)cs1)c1csc2ccc(Cl)cc12 (configuration not stated) |  |  |  | 6.53 µM | > 25 µM
41 | CC(C)(C)c1csc(NC(=O)Cc2ccc(Cl)cc2)n1 |  |  |  | 4.88 µM | > 25 µM
42 | CC(C)(C)c1csc(NC(=O)c2cc(Br)c(Br)s2)n1 | 26 µM |  |  | 3.8 µM | 
43 | CCOC(=O)CC(C)(C)c1csc(NC(=O)Cc2cc(Cl)cc(Cl)c2)n1 |  |  |  | 8.93 µM | > 25 µM
44 | CC(C)(C)c1csc(NC(=O)c2cc3cc(C4=CCCC4)ccc3s2)n1 |  |  |  | > 25 µM | > 25 µM

Row | SMILES | IC50 [1] | IC50 [2] | IC50 [3] | IC50 [4] | IC50 [5]
45 | CC(C)(C)c1csc(NC(=O)Cc2cn(Cc3ccccn3)c3ccc(Cl)cc23)n1 |  |  |  | 2.08 µM | > 25 µM
46 | CC(C)(C)c1csc(NC(=O)Cn2ncc3ccccc32)n1 |  |  |  | > 25 µM | > 25 µM
47 | CC(C)(C)c1csc(NC(=O)Cc2cn(CCc3ccccc3)c3ccc(Cl)cc23)n1 |  | 4.15 µM | > 25 µM |  | 
48 | CC(C)(CCO)c1csc(NC(=O)Cc2cc(Cl)cc(Cl)c2)n1 |  |  |  | > 25 µM | > 25 µM
49 | CC(C)(C)c1csc(NC(=O)C2Cc3ccccc3C2)n1 |  |  |  | 11.2 µM | > 25 µM
50 | CC(C)(C)c1csc(NC(=O)c2cc3cc(-c4ccccc4)ccc3s2)n1 |  |  |  | 11 µM | > 25 µM
51 | CC(C)(C)c1csc(NC(=O)Cc2csc3ccccc23)n1 |  |  |  | 1.76 µM | > 25 µM
52 | CC(C)(C)c1csc(NC(=O)c2cc(Br)cs2)n1 | 72 µM |  |  | 14 µM | 
53 | CC(C)(C)c1csc(NC(=O)CC2CCOCC2)n1 |  |  |  | > 25 µM | > 25 µM
54 | CC(C)(C)c1csc(NC(=O)Cc2cn(-c3ccccc3Cl)c3ccc(Cl)cc23)n1 |  | 4.4 µM | > 25 µM |  | 
55 | CC(C)(C)c1csc(NC(=O)Cc2cn(Cc3ccccc3S(C)(=O)=O)c3ccc(Cl)cc23)n1 |  | 13.2 µM | > 25 µM |  | 
56 | C[C@H](C(=O)Nc1nc(C(C)(C)C)cs1)c1ccccc1 |  |  |  | > 25 µM | > 25 µM
57 | CC(C)(C)c1csc(NC(=O)c2cc3cc(Br)ccc3s2)n1 |  |  |  | > 25 µM | > 25 µM
58 | CC(C)(C)c1csc(NC(=O)c2cc3cc(C4CCCC4)ccc3s2)n1 |  |  |  | > 25 µM | > 25 µM
59 | CC(C)(C)c1csc(NC(=O)Cc2csc3ccc(Br)cc23)n1 |  |  |  | 1.4 µM | > 25 µM
60 | Cc1cc(C(=O)N(C)c2nc(C(C)(C)C)cs2)cs1 |  |  |  | > 25 µM | > 25 µM
61 | CC(C)(C)c1csc(NC(=O)Cc2cc(F)c(F)c(F)c2)n1 |  |  |  | 8.18 µM | > 25 µM
62 | CC(C)(C)c1csc(NC(=O)c2ccc(Cl)s2)n1 | 8 µM |  |  | 2 µM | 
63 | CC(C)(C)c1csc(NC(=O)Cc2cccc3ccccc23)n1 |  |  |  | 3.45 µM | > 25 µM
64 | CC(C)(C)c1csc(NC(=O)c2ccc(-c3ccc(Cl)cc3Cl)s2)n1 | 4.31 µM |  |  | 2.27 µM | 
65 | CC(C)(C)c1csc(NC(=O)Cc2cn(-c3ccc(Cl)cc3)c3ccc(Cl)cc23)n1 |  | 2.69 µM | > 25 µM |  | 
66 | C=CCC(C)(C)c1csc(NC(=O)Cc2csc3ccc(Cl)cc23)n1 |  |  |  | 0.775 µM | > 25 µM

Row | SMILES | IC50 [1] | IC50 [2] | IC50 [3] | IC50 [4] | IC50 [5]
67 | Cc1cc(C(=O)Nc2nc(C(C)(C)C)cs2)sc1-c1ccccc1 | 31 µM |  |  | 4.5 µM | 
68 | CC(C)(C)c1csc(NC(=O)Cc2cccc(Cl)c2)n1 |  |  |  | 7.85 µM | > 25 µM
69 | CC(C)(C)c1csc(NC(=O)[C@H](O)c2cccc(Cl)c2)n1 |  |  |  | > 25 µM | > 25 µM
70 | CC(C)(C)c1csc(NC(=O)CN2CCCCC2)n1 |  |  |  | > 25 µM | > 25 µM
71 | CC(C)(C)c1csc(NC(=O)C2=CCCCC2)n1 |  |  |  | 23.7 µM | > 25 µM
72 | CC(C)(C)c1csc(NC(=O)Cc2ccccc2)n1 |  |  |  | 24.1 µM | > 25 µM
73 | CC(C)(C)c1csc(NC(=O)c2csc3c2CCCC3)n1 | 73 µM |  |  | 14 µM | 
74 | CC(C)(C)c1csc(NC(=O)c2ccccc2)n1 |  |  |  | 10.4 µM | > 80 µM
75 | CC(C)(C)c1csc(NC(=O)CCc2csc3ccccc23)n1 |  |  |  | 23.1 µM | > 25 µM
76 | CC(C)(C)c1csc(NC(=O)Cc2cccnc2)n1 |  |  |  | > 25 µM | > 25 µM
77 | CC(C)(C)c1csc(NC(=O)Cc2coc3ccccc23)n1 |  |  |  | 5.3 µM | > 25 µM
78 | CCC(C)n1cc(CC(=O)Nc2nc(C(C)(C)C)cs2)c2cc(Cl)ccc21 (configuration not stated) |  | 4.38 µM | > 25 µM |  | 
79 | Cc1cccc2scc(CC(=O)Nc3nc(C(C)(C)C)cs3)c12 |  |  |  | 3.2 µM | > 25 µM
80 | CC(C)(C)c1csc(NC(=O)Cc2cc(Cl)cc(C(F)(F)F)c2)n1 |  |  |  | 1.54 µM | > 25 µM
81 | CCCCCc1ccc2sc(C(=O)Nc3nc(C(C)(C)C)cs3)cc2c1 |  |  |  | 8.14 µM | > 25 µM
82 | CC[C@@H](C(=O)Nc1nc(C(C)(C)C)cs1)c1ccccc1 |  |  |  | 9.54 µM | > 25 µM
83 | CC(C)(C)Cc1csc(NC(=O)Cc2csc3ccc(Cl)cc23)n1 |  | 6.99 µM | > 25 µM | 2480 µM | > 25 µM
84 | CC(C)(C)c1csc(NC(=O)C(C)(C)c2ccccc2)n1 |  |  |  | 14.7 µM | > 25 µM
85 | CC(C)(C)c1csc(NC(=O)Cc2cn(Cc3ccccc3C(N)=O)c3ccc(Cl)cc23)n1 |  | > 25 µM | > 25 µM |  | 
